Reference: patent US20230075822A1, “USE OF CASTALAGIN OR ANALOGS THEREOF FOR ANTI-CANCER EFFICACY AND TO INCREASE THE RESPONSE TO IMMUNE CHECKPOINT INHIBITORS” (THE ROYAL INSTITUTION FOR THE ADVANCEMENT OF …, priority 2020, published 2023)

Columns and labels:
[1] = tested on: MCA-205 sarcoma; experiment: MCA-205 tumor model in germ-free conditions; type: in vivo, C57BL/6 mice; settings: castalagin 0.85 mg/kg per mouse
Procedure: FIG. 9A is a graph showing the effects of castalagin administration at the standard concentration (0.85 mg/kg per mouse) in germ-free conditions on tumor size in the murine MCA-205 tumor model.
Murine studies. All animal studies were approved by the Institutional Animal Care Committee (CIPA) and carried out in compliance with the Canadian Council on Animal Care guidelines. Murine experiments were conducted using seven-week-old female C57BL/6 mice, obtained from Charles River, Canada. Germ-free female C57BL/6 mice were purchased from the International Microbiome Centre Germ-Free Facility (University of Calgary, Canada) and maintained at the CR-CHUM Germ-Free Facility.
Subcutaneous model of MCA-205 sarcoma and E0771 breast cancer. Syngeneic C57BL/6 mice were implanted with 0.8×10^6 MCA-205 or 0.5×10^6 E0771 subcutaneously. When tumors reached 20 to 35 mm^2 in size, mice were treated four times (or two times for flow cytometry analysis, see section below) intraperitoneally (i.p.) every three day with anti-PD-1 monoclonal antibody (mAb) (250 μg/mouse; clone RMP1-14, BioXcell) or isotype control (clone 2A3, BioXcell). […] In the control group mice received daily oral gavage with water (100 μL) Tumor area was routinely monitored every three days by means of a caliper. […]

[2] = tested on: gut microbiota; experiment: 16S rRNA gene sequencing of mouse feces (microbiome profiling); type: in vivo, mice
Procedure: Genomic DNA extraction from mouse feces. Total genomic DNA from fecal pellets was extracted using ZymoBIOMICS DNA Miniprep Kit (Zymo Research Corporation) and immediately stored at -80° C. This protocol involves a bead beating step to ensure full recovery of bacterial DNA. DNA concentration and quality were measured using the Nanodrop ND-1000 (ThermoFisher).
16S rRNA gene sequence processing and analysis mouse feces samples. Isolated DNA was analyzed using 16S ribosomal RNA (rRNA) gene sequence to investigate the microbial composition in fecal samples. The V3—V4 region of the 16S rDNA gene was amplified by PCR using primers Bakt_341F (5′-CCTACGGGNGGCWGCAG-3′, SEQ ID NO:5) and Bakt_805R (5′-[…]-3′, SEQ ID NO:6) adapted to incorporate the transposon-based Illumina Nextera adapters (Illumina) and a sample barcode sequence allowing multiplexed paired-end sequencing. PCR mixtures contained 1× Q5 buffer (NEB), 1× Q5 Enhancer (NEB), 200 μM dNTP (VWR International), 0.2 μM of forward and reverse primer (Integrated DNA Technologies), 1 unit of Q5 (NEB) and 1 μl of template DNA in a 50 μl reaction. The PCR cycling conditions consisted of an initial denaturation of 30 sec at 98° C., followed by a first set of 15 cycles (98° C. for 10 sec, 55° C. for 30 sec and 72° C. for 30 sec), then by a second step of 15 cycles (98° C. for 10 sec, 65° C. for 30 sec and 72° C. for 30 sec) and final elongation of 2 min at 72° C. before cooling to 4° C. indefinitely. PCR products were purified using 35 pl of magnetic beads (AxyPrep Mag PCR Clean up kit; Axygen Biosciences) per 50 μl PCR reaction. Amplifications were controlled on a Bioanalyzer 2100 using DNA 7500 chips (Agilent Technologies). Samples were pooled at an equimolar ratio; the pool was repurified as described before and checked for quality on a Bioanalyzer 2100 using a DNA high sensitivity chip. The pool was quantified using picogreen (Life Technologies) and loaded on a MiSeq system (Illumina). High-throughput sequencing was performed at the IBIS (Institut de Biologie Integrative et des Systèmes—Université Laval).
Gene sequence processing and analysis was performed using R v4.0.0. DADA2R package v1.16.0 (Callahan et al., Nat Methods. 2016 July; 13(7):581-3) was used to generate exact amplicon sequence variants (ASV) of each sample from raw amplicon sequences. Sequences were corrected for Illumina amplicon sequence errors, de-replicated, chimera removed, and merged of paired-end reads with 260-bases for forward reads and 190-bases for reverse reads. The taxonomy assignment was performed against the SILVA reference database v138 (Quast et al., Nucleic Acids Res. 2013 January; 41(Database issue):D590-6). Archea and Eukaryota residual sequences were removed. Downstream analyses were performed at the genus-level through phyloseq R package v1.32.0 (McMurdie et al., PLoS One. 2013 Apr 22;8(4):e61217). The alpha-diversity was estimated with the Shannon diversity index and the Inverse Simpson index. These indexes were compared between groups using Mann-Whitney tests.
Statistical analysis. Statistical analysis was performed using R v4.0.0. The Mann-Whitney U test was used to determine significant differences among the different groups using alpha-diversity which show the diversity in each individual sample measures. DESeq2 (Love et al., Genome Biol. 2014;15(12):550) was used to perform differential abundances analysis at the genus-level. […]

With `O=C1OC[C@H]2OC(=O)c3cc(O)c(O)c(O)c3-c3c(O)c(O)c(O)c4c3C(=O)O[C@H]([C@H]3OC(=O)c5c-4c(O)c(O)c(O)c5[C@@H]3O)[C@@H]2OC(=O)c2cc(O)c(O)c(O)c2-c2c1cc(O)c(O)c2O` [castalagin, Castalagin] the tumor size [1] was “abrogated castalagin antitumor effect”, the “beta-diversity (Bray-Curtis)” value ([2]; MCA-205 model, SPF mice, castalagin or water gavage) was “significant clusters formation observed with beta-diversity” and the “differential abundance, taxa enriched” value ([2]; MCA-205 model, SPF mice, castalagin/IsoPD-1 vs water/IsoPD-1) was “enrichment of Akkermensia, Ruminococcaceae UBA1819, Ruminococcus, Staphylococcus, Escherichia/shigella, Blautia and Alistipes”. The “alpha-diversity (observed genus)” value ([2]; MCA-205 model, SPF mice, castalagin/isoPD-1, post-castalagin vs baseline) was “increased alpha-diversity”, the “relative abundance, genera increased” value ([2]; NR FMT experiment, castalagin groups relative to water groups) was “increase of the relative abundance after 16s sequencing analysis of Ruminococcus, Alistepes, Christensenellaceae R7 group, Paraprevotella” and the “relative abundance of Lachnoclostridium” value ([2]; NR FMT experiment, castalagin vs water groups) was “no difference of Lachnoclostridium was observed”.
